The subject of data set [1] is HCV subgenomic reporter replicon of genotype 1b (strain Con1). Description: Anti-HCV 1b activity, luciferase reporter replicon assay in Huh5-2 cells. The data set is classed as cell-based, Hepatitis C virus. Particulars: for EC50: Hepatitis C virus. The procedure: (§1) The HCV RNA replication inhibitory effect of the novel compounds and their impact on cell viability was tested in the stable cell line Huh5-2 carrying an HCV subgenomic reporter replicon of genotype 1b (strain Con1). The viral replication level was measured in terms of the activity of the co-expressed firefly luciferase (F-Luc). Several concentrations of the tested compounds were prepared in a cell culture medium and were used to treat the cells for 72 h. The solvent DMSO was added as a control with a final concentration of 0.2% so as not to impact viral replication (data not shown). First, different compound concentrations of up to 100 μM were evaluated for their effect on cell viability; results are reported as the median cytotoxic concentration (CC50). Next, all compounds were screened for their anti-HCV activity at a concentration of 1 µM, and compounds showing ≥50% activity were further tested in several concentrations to calculate the median effective concentration (EC50) values (Table 1 and Table 2). The anti-HCV activity of the analogs 1–32 was estimated by quantifying luciferase activity resulting from viral replication. Cytotoxicity was determined by measuring the intracellular levels of ATP. The selectivity index (SI50) was calculated as the ratio of CC50 to EC50 and was calculated as an indication of the compounds’ safety. We used daclatasvir as a positive control.
(§2) The stable replicon cell line Huh5-2 (genotype 1b; Con1) (kindly provided by R. Bartenschlager, Heidelberg University, Germany) has been described previously. The stable cell lines Huh7.5-3a and Huh7.5-4a have been constructed with the subgenomic reporter replicons of HCV 3a (S52) S52-SG(Feo)(AII) and HCV 4a (ED43) ED43-SG(Feo)(VYG) (kindly provided by C.M. Rice, The Rockefeller University, NY). Cells were cultured in high glucose (25 mM) Dulbecco’s modified minimal essential medium (Invitrogen), supplemented with 2 mM L-glutamine, 0.1 mM non-essential amino acids, 100 U/mL penicillin, 100 µg/mL streptomycin, and 10% (v/v) fetal calf serum (referred to as complete DMEM). Complete DMEM was supplemented with G418 at 500 μg/mL for Huh5-2, 750 μg/mL for Huh7.5-3a, and 350 μg/mL for Huh7.5-4a.
(§3) Cells were treated with serial dilutions of the test compounds or the solvent DMSO for 72 h. Antiviral activity and cytotoxicity were determined by measuring virus-derived luciferase activity or intracellular ATP levels, respectively. The median effective concentration (EC50) of the compounds, reducing luciferase signal by 50%, and their median cytotoxic concentration (CC50), causing 50% cell death, were determined by nonlinear regression analysis using the Prism 6.0 software (GraphPad Software Inc.). Daclatasvir was kindly provided by Dr. Marc Windisch (Institut Pasteur Korea).
Firefly luciferase activity was measured using Luciferase Assay System (Promega), according to the manufacturer’s instructions. Measurements were performed with a GloMax 20/20 single tube luminometer (Promega) for 10 s. Values were normalized to total protein amounts as quantified by Bradford assay (Pierce).
For orientation: In a reporter assay the amount or activity of a reporter protein is the signal.

Data set [2] in a line: Cytotoxicity by intracellular ATP levels. It is filed as cell-based. To be noted: human, Huh5-2 cells, read-out: HCV Replicon 1b CC50. The protocol:
as §1, §3
ATP was measured using the ViaLight HS BioAssay kit (Lonza) according to the manufacturer’s protocol in a GloMax 20/20 single-tube luminometer (Promega) for 1 s. Values were normalized to total protein amounts.
On the technique in general: Replicon systems follow genome replication, usually without infectious particles.

In data set [3] the test system is HCV subgenomic replicon of genotype 3a (strain S52). The data set is described as follows: Anti-HCV 3a activity, replicon assay in Huh7.5-3a cells. The data set is classed as cell-based, Hepatitis C virus. To be noted: for EC50: Hepatitis C virus, read-out: EC50 GT 3a.
From the text: (§4) Compound 26, showing the highest activity on genotype 1b was further tested against HCV 3a and 4a replicons. The fact that genotype 4 is highly heterogeneous, of less response to DAAs, and the most prevalent genotype in Egypt, made this genotype of specific interest. Moreover, genotype 3 is the most difficult to treat genotype using DAAs, especially in patients with liver cirrhosis. Specifically, Huh7.5-3a and Huh7.5-4a stable cell lines having HCV subgenomic replicons of genotypes 3a (strain S52) and 4a (strain ED43), respectively, were treated with different concentrations of compound 26. […] Further structural optimization is required, and testing compound 26 in combination with other DAAs could improve the clinical outcome.
as §2
(§5) Cells were treated with serial dilutions of the test compounds or the solvent DMSO for 72 h. Antiviral activity and cytotoxicity were determined by measuring virus-derived luciferase activity or intracellular ATP levels, respectively. […]
(§6) Firefly luciferase activity was measured using Luciferase Assay System (Promega), according to the manufacturer’s instructions. […] Values were normalized to total protein amounts as quantified by Bradford assay (Pierce).

The subject of data set [4] is HCV subgenomic replicon of genotype 4a (strain ED43). The data set is described as follows: Anti-HCV 4a activity, replicon assay in Huh7.5-4a cells. It is filed as cell-based. To be noted: Hepatitis C virus, read-out: EC50 GT 4a.
From the text: as §4
The stable replicon cell line Huh5-2 (genotype 1b; Con1) (kindly provided by R. Bartenschlager, Heidelberg University, Germany) has been described previously. […]
as §5, §6

The subject of data set [5] is HCV genotype 1b replicon (Huh5-2 cells). The data set is described as follows: Drug-drug interaction with daclatasvir in Huh5-2 replicon cells (F-Luc activity). The data set is classed as cell-based, Hepatitis C virus. The protocol:
Next, we investigated the effect of compound 26 in the presence of daclatasvir (DCV) in Huh5-2 replicon cells. […] It is worth noting that NS5A is a very flexible protein and can attain different conformations (open conformer and closed conformer PDB ID: 1ZH1, 3FQM, respectively); thus, there is the potential for different binding modes of daclatasvir and our molecules, at the active center of the NS5A protein, leading to synergism.
The coefficient of Drug interactions (CDI) is calculated as follows: CDI = AB / (A × B), where AB is the ratio of the combination groups to the control group; A or B is the ratio of the single-agent group to the control group.
Figure 4 Synergistic anti-HCV activity of compound 26 with daclatasvir (DCV). Huh5-2 cells were treated with 30 pM or […] of DCV was used to in the presence or absence of the analog. F-Luc activity was quantified as relative light units (RLU) per μg of total protein. Values derived from cells treated with the solvent DMSO (control—C) were set to 100%. CDI: coefficient of drug interaction. Bars show mean values derived from three independent experiments in triplicate. Error bars denote standard deviation (SD). TEXT PRINTED IN THE PICTURE: 26 + DCV: CDI: 0,68 (DCV 15 pM - Comp. 26 25 pM); CDI: 0,70 (DCV 30 pM - Comp. 26 50 pM)

In the next data set the test system is HCV 1b RNA. The data set is described as follows: Quantification of (+) strand HCV RNA by RT-qPCR in Huh5-2 cells. The data set is classed as cell-based. Particulars: Hepatitis C virus, Huh-5-2, normalized to YWHAZ. The procedure: The HCV RNA and NS5A protein levels were determined in cells treated with compound 26 using reverse transcription-quantitative polymerase chain reaction (RT-qPCR) or Western blot analysis, respectively (Figure 5A).
Total RNA was extracted from Huh5-2 cells with Nucleozol reagent (Macherey-Nagel), according to the manufacturer’s instructions, and used to perform reverse-transcription (RT) and quantitative real-time polymerase chain reaction (qPCR) for replicon RNA. RT was performed using Moloney Murine Leukemia Virus (MMLV) reverse transcriptase (Promega) and reverse primers specific for Con1 IRES (5’-[…]-3’) and the housekeeping gene YWHAZ (5’- […]-3’). For qPCR, primers specific for the Con1 IRES (forward: 5’-[…]-3’and reverse: 5’-[…]-3’) and KAPA SYBR FAST qPCR Master Mix (Kapa Biosystems) were used. YWHAZ mRNA was used as a normalization control (forward: 5’-[…]-3’ and reverse: 5’- […]-3’).
Figure 5 Anti-HCV activity of compound 26 at the level of viral RNA and protein. Different concentrations of compound 26, or the solvent DMSO (control—C), were used to treat Huh5-2 cells. (A) Quantification of (+) strand HCV RNA by RT-qPCR. Values are expressed as a percentage of those obtained from control cells. mRNA levels of the housekeeping gene 14-3-3-zeta polypeptide (YWHAZ) were used for normalization. (B) (Top) Western blot analysis for NS5A. β-actin was used as a loading control. […]
On the technique in general: In qPCR the cycle at which signal appears reflects the starting amount.

Where two headings read alike, the source gives them in different places. A value given as a limit tells only on which side of the number the result lay.

What is called EC50 is the concentration needed to bring the measured effect to its halfway point. Usually CC50 stands for the concentration at which the toxic effect on the cells reaches its halfway point.

Consider `CCOC(=O)N[C@@H](C(=O)N1CCC[C@H]1C(=O)Nc1ccc2c(c1)Cc1cc(NC(=O)[C@@H]3CCCN3C(=O)[C@H](NC(=O)OCC)c3ccccc3)ccc1-2)c1ccccc1` [Compound 26, Diethyl((1R,1’R)-((2S,2’S)-(((9H-fluorene-2,7-diyl)bis(azanediyl))bis(carbonyl))bis(pyrrolidine-2,1-diyl))bis(2-oxo-1-phenylethane-2,1-diyl))dicarbamate], for which the “fold more active than S counterparts” value in data set [1] (25 vs 21, 26 vs 22, HCV 1b EC50 ratio) turned out to be 200 fold. For the same molecule, the EC50 stood at 0.036 nM in data set [1] (Huh-5-2, 72 h, read-out: HCV Replicon 1b EC50); 0.04 nM in data set [1] (Huh-5-2, read-out: EC50 against HCV genotype 1b); 1.2 nM in data set [3]; 117 nM in data set [4]; 0.03 nM with HCV 1b RNA. The “selectivity index relative to daclatasvir” value in data set [1] (SI50 ratio) was “four-fold better”. The cytotoxic concentration (CC50) at 72 h in data set [2] is above 100000 nM. Besides, the “effect on GT 3a relative to daclatasvir” value in data set [3] (EC50 ratio) is recorded as “seven-fold higher”. Also, the figures for the CDI in data set [5] (DCV 15 pM - Comp. 26 25 pM) and in data set [5] (DCV 30 pM - Comp. 26 50 pM) were 0,68 and 0,70, respectively. Moreover, in data set [5] (compound 26 with daclatasvir, CDI <1 synergistic), the “coefficient of drug interaction (CDI)” value is reported as “≈ 0.7”.
Consider `COC(=O)N[C@H](C(=O)N1CCC[C@H]1c1nc(-c2ccc(-c3ccc(-c4c[nH]c([C@@H]5CCCN5C(=O)[C@@H](NC(=O)OC)C(C)C)n4)cc3)cc2)c[nH]1)C(C)C` [Daclatasvir, reference compound], for which the EC50 in data set [1] (Huh-5-2, Huh5-2 cells, 72 h, luciferase activity, read-out: HCV Replicon 1b EC50) came out at 0.027 nM; in data set [3] (Huh7.5-3a cells) it was 8.3 nM. Further, the “HCV Replicon 1b SI50” value in data set [1] (SI50 = CC50/EC50) was 655,556. Besides, the CC50 at 72 h in data set [2] was determined as 17700 nM.

The record behind these values is paper PMC8064491, “Design and Synthesis of Novel Symmetric Fluorene-2,7-Diamine Derivatives as Potent Hepatitis C Virus Inhibitors” (Pharmaceuticals, 2021).
